From patent publication US20060062793A1, “Modified antibodies to prostate-specific membrane antigen and uses thereof” (priority 2004, published 2006)

Columns and labels:
[1] = tested on: LNCaP tumor sections; format: in vivo, mouse
[2] = tested on: hormone-independent prostate cancer; test: Phase I trial of trace-labeled 131I-J591 (murine) in hormone-independent prostate cancer patients; format: in vivo, human
Protocol: Hormone-independent patients with rising PSA levels and acceptable hematologic, hepatic and renal function received a single dose of murine mAb J591. Doses are escalated (from 0.5-300 mg) in groups of three to six patients. Each dose included ≦1.0 mg J591 labeled with 10 mCi ^131I iodine as a tracer plus “cold” mAb. The dose levels used ranged from 0.5 to 300.0 mg as follows: 0.5 mg, 1.0 mg, 2.0 mg, 5.0 mg, 10 mg, 25 mg, 50 mg, 100 mg, 125 mg, 150 mg, 200 mg, 250 mg, and 300 mg. Blood and urine were collected to monitor pharmacokinetics, toxicity and human anti-mouse antibody (HAMA) response. Patients were imaged on the day of injection (day 0), as well as days 2, 4 and 6 to track mAb targeting.

[3] = tested on: recurrent, progressing prostate cancer; test: Phase I trial of four weekly doses of 111In-DOTA-deJ591; parameters: species or system human; conditions: in vivo
Protocol: Patients with recurrent, progressing prostate cancer received four weekly doses of ^111In-DOTA-deJ591. Doses were escalated in cohorts of three patients and ranged from 62.5-500 mg/m2 (total). […] After the first dose, patients were imaged on the day of injection (day 0) and days 1, 2, 4 and 7.
Serum PK, immune reaction and toxicity were evaluated after each dose for a minimum of 12 weeks.

[4] = tested on: hormone refractory prostate cancer; test: 111In-DOTA-deJ591 targeting of hormone refractory prostate cancer (single 20 mg dose, imaging); format: in vivo, human
[5] = tested on: LNCaP tumor; test: Gamma camera imaging of nude mice with 111In-DOTA-J591; format: in vivo, mouse; conditions: days 1-6
Protocol: For the imaging studies, animals were injected with 2 MBq of ^111In-DOTA-J591. On days 1, 2, 3, 4 and 6 post-injection, the mice were sedated with ketamine/xylazine 100 mg/kg/10 mg/kg IP. The mice were imaged with a gamma camera (Transcam, ADAC Laboratories, Milpitas, Calif.) equipped with a pinhole collimator. The images were acquired in a 256×256 matrix for 1000 seconds using a 20% window of 245 KeV photopeak of ^111In.

[6] = tested on: PSMA-positive CWR22 xenografts; test: deJ591-DM1 efficacy in PSMA-positive CWR22 xenografts in scid mice; format: in vivo, mouse
Protocol: (§1) Experiment: Male SCID mice were implanted by serial passage of CWR22 prostate tumor xenograft. […] All treatments were given intravenously. Tumor growth and animal health were continually monitored throughout the study with tumor growth measured every 3 days.
Experiment: Male C.B-17 SCID mice bearing CWR22 xenografts approximately 200 mm^3 in size received IV injections (200 μL constant volume) of the test articles according to the dose and schedule as shown in Table 22.
Male C.B-17 scid mice bearing CWR22 xenografts approximately 200 mm^3 in size received IV injections (200 μL constant volume) of the test articles according to the dose and schedule shown in the Table 23.
The objective of this study was to determine how much the dosing interval could be increased at this dosage before a loss of efficacy in terms of TGD would be observed. […] The growth delays for the other schedules were: q7d, 53.0 days; q21d, 48.0 days; and q28d, 26.9 days. Similar to other studies using the CWR22 xenograft model, no curative responses were observed, with all tumors eventually resuming growth (FIG. 18).
as §1, with “intravenously and on a schedule of every three days for 5 doses.” for “intravenously.”
as §1, with “intravenously and on a schedule of every seven days for 5 doses.” for “intravenously.”

[7] = tested on: androgen-independent PSMA-positive 22RV1 xenograft; test: deJ591-DM1 efficacy in castrate or intact scid mice bearing 22RV1 xenograft; format: in vivo, mouse
Protocol: Prostate tumors can be broadly classified as either androgen-dependent or androgen-independent. […] The 22RV1 cell line was originally developed as androgen-independent and can be grown as a xenograft in C.B-17 scid mice that have been left either intact or castrated. […] This was approximately twice the time required for the tumors of intact mice to reach 1000 mm^3 (9.3 days). C.B-17 scid mice bearing CWR22 xenografts approximately 200 mm^3 in size received IV injections (200 μL constant volume) of the test articles according to the dosage and schedule shown in the Table 24.

[8] = tested on: metastatic androgen-independent prostate cancer; test: Phase 1 ascending dose trial of DM1 conjugated deJ591 in metastatic androgen-independent prostate cancer; format: in vivo, human
Protocol: Based upon emerging clinical safety and PK, repeat dosing at four week intervals was subsequently permitted.
DLT is defined as the occurrence of one or more of the following: • Hematologic: Grade 4 thrombocytopenia (platelet count <10,000/mm3) • Requirement for platelet transfusion and/or other methods to increase platelet count • Febrile neutropenia (ANC<1000/mm^3 concurrent with a temperature >38.5° C.). (Per the Infection/Febrile Neutropenia subsection of the NCI CTC version 2.0, febrile neutropenia is, by definition, a >Grade 3 toxicity) • Grade 4 neutropenia without fever of >7 days duration • Grade 3 neutropenia requiring granulocyte colony-stimulating factor (G-CSF) administration • Grade 4 anemia (hemoglobin <6.5 g/dL) • Grade 3 anemia (hemoglobin 6.5-<8.0 g/dL) in a subject receiving EpogenÒNon-hematologic • Any Grade 3 non-hematologic toxicity considered by the investigator to be possibly related to study drugMTD is defined as the highest dose level with an observed incidence of DLT in no more than 1 out of 6 subjects. […]
The starting dose is 18 mg/m2. […] Dose escalation will continue until DLT and MTD are determined. […] Subsequent dose escalation and enrollment will be determined by the number and grade of toxicities observed in these two additional subjects. […] The previous dose level will be evaluated as potential MTD. […]

[9] = tested on: PSMA-negative PC3 tumors; format: in vivo, mouse; conditions: 4 days post injection, PC3 tumors (n=10)
Protocol: (§2) Prior to use, the cells were trypsinized, counted and suspended in Matrigel (Collaborative Biomedical Products, Bedford, Mass.). Nu/Nu Balb C mice 8-10 weeks of age were inoculated, in the right and left flanks, with a suspension of 5×10^6 LNCaP cells in Matrigel (BD Biosciences, Bedford Mass.). After a period of 14-18 days, tumors (100-300 mg) had developed. The PSMA-negative DU145 and PC3 cells were implanted in nude mice in an identical manner.
(§3) The PSMA-positive and PSMA-negative tumor bearing mice were injected, via the tail vein, with 80 KBq of the iodinated MAb (400 MBq/mg) in 200 μL of PBS (pH 7.4, 0.2% BSA). Groups of animals (3-8/group) were sacrificed after 2, 4 or 6 days. The major organs and tumors were recovered. The tissue samples were weighed and counted, with appropriate standards in an automatic NaI(Tl) counter. These measured relative activity data (cpm) were background corrected and expressed as a percentage of the injected dose per gram (% ID/g). […] J415, J591 and 7E11 were labeled with ^111In (100 MBq/mg). 80 KBq of the ^111In labeled MAbs were injected in groups of animals. The % ID/g in various organs and tumor tissues was determined at 2-6 days post injection in a similar way as described for ^131I labeled MAbs.
(§4) The uptake in lungs, kidney, muscle was similar with all three antibodies.

[10] = tested on: PSMA-negative DU145 tumors; format: in vivo, mouse; conditions: 4 days post injection, DU145 tumors (n=6)
Protocol: as §2, §3, §4

[11] = tested on: PSMA-positive human LNCaP tumors; test: Biodistribution of 111In labeled MAbs in nude mice bearing LNCaP tumors; format: in vivo, mouse
Protocol: as §2, §3

[12] = tested on: prostate tissue; test: Immunohistochemistry of DOTA conjugated deJ591
Protocol: Immunohistochemistry was performed on the DOTA conjugated, partially purified, bulk intermediate deJ591.

[13] = 14.5 mg/kg, 7 and 14 day dosing interval

^131I-J591: murine mAb J591 labeled with 131I iodine
binding pattern, ex vivo autoradiography ([1]; incubated directly on the tissue section): homogeneous binding pattern
adverse events related to the murine antibody ([2]; 33 patients): Only one patient had an adverse event related to the murine antibody
positive monoclonal antibody scans among patients with positive soft tissue (CT scans) ([2]; eight out of nine): about 90%
human anti-murine antibody (HAMA) response ([2]; human, in vivo): Eight out of sixteen evaluable patients
patients in whom known sites of prostate cancer metastases can be imaged ([2]; patients with disease sites imaged by conventional studies): approximately 80%
positive monoclonal antibody scans among patients with positive bone scans ([2]; twenty-four out of twenty-seven): about 90%

^111In-DOTA-deJ591
mAb targeting to non-prostate cancer sites [3]: No mAb targeting to non-prostate cancer sites was noted
Plasma clearance (T1/2) ([4]; 20 mg deJ591): 34 ± 5 h
Liver uptake ([4]; day 6): 27±1.7%
accumulation in the prostate gland ([4]; patients with intact but irradiated prostate): generally minimal
absorbed dose by the liver ([4]; with 111In): 2.8±0.25 rads/mCi
tumor accumulation on serial gamma camera images [5]: intense tumor accumulation

deJ591-DM1: deJ591 conjugated via SPP disulfide linker to the maytansinoid cytotoxin DM1
resumption of normal growth kinetics after the last dose [6, 13]: approximately 30 days
tumor growth [6, 13]: apparent block in tumor growth
suppression of tumor growth following the last administered dose ([6]; 14.5 mg/kg, every three days for 5 doses, IV): approximately 20 days
Efficacious dosage in SCID mouse xenografts, DM1-Equivalents received ([6]; SCID mouse xenografts, DM1-equivalents): ˜0.72 mg/m^2
tumor growth inhibitory effect ([6]; doses and schedules of Comparison I, non-curative): substantial tumor growth inhibitory effect
effect on large tumors (500 to 2000 mm^3) ([6]; second course, 12.93 mg/kg): potent regressions in large tumors
TGD compared to DM1 at equivalent dose and schedule ([7]; androgen-intact mice, q3d schedule): better TGD
dose-limiting toxicity ([8]; highest dose level 343 mg/m^2): Only one DLT, an uncomplicated febrile neutropenia
tumor response ([8]; one patient, 264 mg/m^2): PR by RECIST criteria

COc1cc2cc(c1Cl)N(C)C(=O)C[C@H](OC(=O)[C@H](C)N(C)C(C)=O)[C@]1(C)O[C@H]1[C@H](C)[C@@H]1C[C@@](O)(NC(=O)O1)[C@H](OC)/C=C/C=C(\C)C2 [Maytansine, reference compound]
Tumor Growth Delay ([6]; 240 μg/kg (240 μg/kg DM1-equivalents), qdX5, IV, Comparison I): 17.7 days

^131I-deJ591
tumor uptake [9]: 0.66±0.07 % ID/g
tumor uptake [10]: 0.55±0.03 % ID/g

J591: murine monoclonal antibody to the extracellular domain of human PSMA; hybridoma ATCC HB-12126
intra-tumoral distribution pattern ([1]; 131I-labeled, 4 to 6 days after intravenous injection): distinct preferential accumulation in areas of viable tumor
kinetics of blood clearance [11]: faster compared to 7E11

DOTA-deJ591
tissue specificity by immunohistochemistry [12]: specific to prostate tissue
reactivity by immunohistochemistry ([12]; compared with naked deJ591): equivalent to the naked deJ591 antibody

MLN2704
Tumor Growth Delay ([7]; Castrate mice, 22RV1 xenograft, 240 μg/kg DM1-equivalents, q7dX5): 21.4 days
